{
  "source": "patent US10561638B2",
  "about": "“Methods for treating dependence” (Biotie Therapies, Inc., priority 2007, dated 2020)",
  "key": {"CD-1 (ICR) mice": {"system": "CD-1 (ICR) mice", "assay": "Locomotor activity in mice, intraperitoneal", "assay_type": "in vivo", "settings": "i.p.; nepicastat 3-100, SKF-102698 30 and 100, cocaine 30 mg/kg", "from_the_text": "Adult male CD-1 (ICR) mice (30-40 g on study day) were housed in groups of eight under a normal light/dark cycle with lights on between 0900 hr and 2100 hr. Food and water were allowed ad libitum. All animals were naive to drug treatment and behavioral testing. Each animal was only used once.\nLocomotor activity was monitored in an automated 14 station activity monitoring system (San Diego Instrument Co.). Each station consisted of a clear perspex cage (25 cm×45 cm×20 cm; w×1×h) placed within a metal frame containing 3 photoemmitors and 3 photodetectors spaced equally along the length of the wall. The bottom of each cage was lightly covered in clean cedar bedding.\nThe mice were placed in the testing room at least 1 hr prior to testing. The mice were placed individually into one of the activity cages and allowed to explore for 30 min. […] Following a 60 minute pre-treatment period, motor activity was monitored for 180 minutes. Activity counts and ambulations (defined as a break of 2 consecutive photobeams) for each animal were recorded every 30 minutes.\nA repeated measures two-way analysis of variance (ANOVA) was performed using the overall ranked data (nonparametric technique) to test for the overall effects of treatment, time interval and treatment by time interval interaction. […]"}, "anesthetized beagle dogs": {"system": "anesthetized beagle dogs", "assay": "Sympathetically-evoked responses in dogs after 4.5 days dosing", "assay_type": "in vivo", "settings": "10 mg/kg/d for 4.5 days"}, "[1]": {"system": "norepinephrine and dopamine levels", "assay": "Cortex and mesenteric artery catecholamines in SHRs after 7 and 25 days", "assay_type": "in vivo, spontaneous hypertensive rats", "procedure": "Nepicastat at 1 and 10 mg/kg was prepared in terms of the free base. The weighings were dissolved in vehicle (dH2O) to yield oral doses that could be administered in a volume of 10.0 ml/kg.\nMale spontaneous hypertensive rats (SHRs), 16-17 weeks old at the onset of the study, were used. Animals were allowed food and water ad libitum. Animals were randomly assigned to one of the following treatment groups: oral administration of nepicastat at 10 mg/kg, 1 mg/kg, or a vehicle group of deionized water at 10 ml/kg. Rats were dosed orally once a day for 7 or 25 days with vehicle, 1 mg/kg or 10 mg/kg nepicastat (n=8) except for day 25, where n=9. On day 7, four hours after compound administration, animals were anesthetized with halothane, decapitated and the cortex and mesenteric artery were harvested, weighed, and analyzed from 24 rats (n=8/treatment group). The remaining […] continued receiving oral administration with one of the three treatments for the following 18 days. At 4 hours after the last treatment the mesenteric artery and cortex from this group were harvested, weighed, and analyzed for catecholamine levels.\nStatistically, the three treatments were compared at each time period (7 or 25 days) using a non-parametric one-way analysis of variance (ANOVA). Pairwise comparisons of each treatment with control were performed using Fisher's LSD strategy on the means, adjusted for differences in sample size, to control the experiment-wise error rate. Each variable was analyzed separately. For FIGS. 6-11, *, p<0.05 and **, P<0.01."}, "[2]": {"assay": "Safety and tolerability in squirrel monkeys", "assay_type": "in vivo", "procedure": "Six squirrel monkeys, three non-lesioned and three lesioned (received 2 mg/kg MPTP 3 months prior), were used to study safety and tolerability of nepicastat. Animals received nepicastat at a concentration of 0.5, 2.0, or 5.0 mg/kg twice daily, (10 am and 2 pm), for 5 days with a two-day washout between the different dose levels. Nepicastat was administered via oral syringe at the 0.5, 2.0 […] mg/kg doses and as oral gavage at the 5.0 mg/kg dose."}, "[3]": {"settings": "cerebral cortex, 7 days, 10 mg/kg"}, "[4]": {"settings": "mesenteric artery, 7 and 25 days, 10 mg/kg"}},
  "note": "“Also recorded” adds a separate entry of the source.",
  "data": [
    {"smiles": "Fc1cc(F)cc(Cn2cc[nH]c2=S)c1", "note": "[SKF-102698, reference compound]", "values": [
      {"measurement": "total activity counts and ambulations vs vehicle", "setting": "CD-1 (ICR) mice", "result": "no significant differences; also recorded: no significant effects"}
    ]},
    {"smiles": "Cl.NCc1c[nH]c(=S)n1[C@H]1CCc2c(F)cc(F)cc2C1", "note": "[nepicastat, (S)-5-Aminomethyl-1-(5,7-difluoro-1,2,3,4-tetrahydronaphth-2-yl)-2,3-dihydro-2-thioxo-1H-imidazole hydrochloride]", "values": [
      {"measurement": "blood pressure and heart rate increases in response to carotid artery occlusion", "setting": "anesthetized beagle dogs", "result": "no statistically significant decrease"},
      {"measurement": "blood pressure response to i.v. tyramine challenge", "setting": "anesthetized beagle dogs", "result": "only slight and non-significant inhibition"},
      {"measurement": "heart rate response to i.v. tyramine challenge", "setting": "anesthetized beagle dogs", "result": "significantly reduced the increase in heart rate"},
      {"measurement": "norepinephrine levels and dopamine/norepinephrine ratio vs vehicle", "setting": "[1]; cerebral cortex, 7 days, 1 mg/kg", "result": "no significant (p>0.05) differences"},
      {"measurement": "dopamine/norepinephrine ratio vs vehicle", "setting": "[1]; [3]", "result": "significantly (p<0.05) higher"},
      {"measurement": "norepinephrine levels vs vehicle", "setting": "[1]; [3]", "result": "significantly (p<0.1) lower"},
      {"measurement": "dopamine levels vs vehicle", "setting": "[1]; cerebral cortex, 7 days, 1 or 10 mg/kg", "result": "no significant (p>0.05) differences"},
      {"measurement": "dopamine levels vs vehicle", "setting": "[1]; cortex, 25 days, 1 mg/kg", "result": "significantly (p<0.05) higher"},
      {"measurement": "dopamine/norepinephrine ratio vs vehicle", "setting": "[1]; cortex, 25 days, 1 mg/kg", "result": "significantly (p<0.01) greater"},
      {"measurement": "dopamine/norepinephrine ratio vs vehicle", "setting": "[1]; cortex, 25 days, 10 mg/kg", "result": "significantly greater (p<0.05)"},
      {"measurement": "norepinephrine levels vs control", "setting": "[1]; cortex, 25 days, either dose", "result": "not significantly (p.>0.05) different"},
      {"measurement": "all parameters vs control", "setting": "[1]; mesenteric artery, 1 mg/kg", "result": "None of the parameters measured were significantly (p<0.05) different"},
      {"measurement": "dopamine levels and dopamine/norepinephrine ratios vs vehicle", "setting": "[1]; [4]", "result": "significantly higher dopamine levels and dopamine/norepinephrine ratios"},
      {"measurement": "norepinephrine levels vs vehicle", "setting": "[1]; [4]", "result": "no differences in norepinephrine levels"},
      {"measurement": "adverse finding in one non-lesioned monkey", "setting": "[2]; 5.0 mg/kg twice daily, final two days", "result": "light beige colored loose stools"},
      {"measurement": "tolerability", "setting": "[2]; 0.5 and 2.0 mg/kg twice daily, 5 days", "result": "well tolerated at the two lower doses"}
    ]}
  ]
}
